The record followed here is US20170197977A9, “COMPOSITIONS AND METHODS FOR TREATING NEURODEGENERATIVE DISEASE” (COGNITION THERAPEUTICS, INC., priority 2011, published 2017).

Entries after “also recorded” stand apart in the source; their conditions may differ.

The subject of one series is 100 known receptors. The series is described as follows: Test for action at 100 known receptors. It counts as binding, human. As to conditions: 10 μM. How it is done:
It was also tested for its ability to block downstream signaling induced by agonists or antagonists of a given human receptor.

Another series has as its system sigma-2 receptor. The series is described as follows: Autoradiography, displacement of [3H]-RHM-1 in brain sections. As to conditions: 1 μM; monkey frontal cortex, monkey hippocampus, human temporal cortex. It counts as binding. For orientation: In a radioligand displacement assay an active substance lowers the binding of a labelled ligand.
The target in series [1] is T1, sigma 2 (agonist radioligand) (Rattus norvegicus, UniProt Q5U3Y7).
T1 sequence (Q5U3Y7 1-176): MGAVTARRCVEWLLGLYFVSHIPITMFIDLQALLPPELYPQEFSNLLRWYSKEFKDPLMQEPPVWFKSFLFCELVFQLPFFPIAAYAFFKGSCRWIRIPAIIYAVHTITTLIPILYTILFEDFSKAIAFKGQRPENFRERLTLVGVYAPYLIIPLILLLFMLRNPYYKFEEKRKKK
The series is described as follows: Receptor binding assay, displacement of known radioligand. As to conditions: read-out: % Inhibition of Control.

The subject of series [2] is Abeta oligomer-induced memory deficits in wt C57BL/6 mice. Briefly: Contextual fear conditioning after intrahippocampal Abeta oligomer injection. The series is classed as in vivo, mouse. How it is done:
Abeta oligomers (single 200 nanoMolar intrahippocampal injection) produced significant deficits in memory formation in 3-4 month old male wt C57BL/6 mice (N=16) compared to vehicle (N=18).
Several pharmaceutical companies use this same model in their discovery efforts. Contextual fear conditioning is an accepted model of associative memory formation which correlates to human cognitive function and specifically the creation of new (Delgado '06). Abeta oligomers are injected into the hippocampus of wild-type animals immediately before conditioning training and memory is assessed via freezing behavior after 24 hours. Details are provided in Example 9. […] This model system was chosen because intrahippocampal administration of oligomers allows rapid comparative assessment of compound activity and off-target toxicity. The results are shown graphically in FIG. 4.
Compound II was tested in an animal model of a memory-dependent behavioral task known as fear conditioning. The study protocol was designed based on published protocols (See e.g. Puzzo D, Privitera L, Leznik E, Fà M, Staniszewski A, Palmeri A, Arancio O. Picomolar amyloid-beta positively modulates synaptic plasticity and memory in hippocampus. J. Neurosci. 2008 Dec. 31; 28(53):14537-45.). The formation of contextual memories is dependent upon the integrity of medial temporal lobe structures such as the hippocampus. […]

The next series concerns the target T2, sigma-1 receptor (Cavia porcellus, UniProt Q60492).
T2 construct: from tissue; host or cells: guinea pig brain membrane homogenates
Briefly: Competitive radioligand binding assay 2, guinea pig brain membrane homogenates. As to conditions: read-out: Sigma-1 (Ki, nM) ±mean SEM. How it is done:
The affinity of candidate sigma-2 ligand compounds at sigma-1 and sigma-2 receptors was also determined by displacement of different known labeled sigma-2 or sigma-1 ligands. Filtration assays were conducted according the previously published procedure (Xu, et al., 2005). Test compounds were dissolved in N,N-Dimethylformamide (DMF), dimethyl sulfoxide (DMSO) or ethanol and then diluted in 50 mM Tris-HCl pH 7.4 buffer containing 150 mM NaCl and 100 mM EDTA. Membrane homogenates were made from guinea pig brain for sigma-1 binding assay and rat liver for sigma-2 binding assay. Membrane homogenates were diluted with 50 mM Tris-HCl buffer, pH 8.0 and incubated at 25° C. in a total volume of 150 uL in 96 well plates with the radioligand and test compounds with concentrations ranging from 0.1 nM to 10 uM. […] A Wallac 1450 MicroBeta liquid scintillation counter (Perkin Elmer, Boston, Mass.) was used to quantitate the bound radioactivity.
The binding affinity, Ki values was calculated using the method of Cheng and Prusoff. […]

The test system of the next series is CYP2D6, CYP3A4, CYP2C19. The series is described as follows: in vitro.
Series [3] relates to Abeta oligomer-induced synapse loss. The series is described as follows: Synapse loss assay (synaptophysin puncta) in primary neurons. It counts as cell-based, rat. How it is done:
In this assay, Abeta oligomers were brought in contact with mature primary neurons in culture and their binding was determined by immunohistochemistry (anti-Abeta antibody) and quantified by image processing. The amount of Abeta in neuronal dendrites is assessed by counting the number of labeled puncta on the neuritis. […] This labeling is associated with synapses, co-localizing with the post-synaptic scaffold protein PSD-95 (Lacor et al., '04). […] The number of synapses can also be quantified in this assay by immunofluorochemistry. Similar procedures for binding assays can be found in the literature. […] Review.
Primary hippocampal neuronal culture was established as in the membrane trafficking assay above. […] Pretreatment with compounds to be tested lasted for 1 hr and addition of Abeta oligomers or no oligomer (vehicle alone) in a final concentration of 70 ul was followed by incubation for an additional 23 hrs.
The plates were then washed 3× with PBS for 5 min each. The plates were blocked at RT for 1 hr in 5% goat serum and 0.5% Triton X-100 in PBS. […] Primary antibodies were incubated overnight at 4° C. The plates were then washed 3× with PBS for 5 min each. […] Secondary antibodies were incubated at RT for 1 hr. The plates were washed once with PBS. DAPI (4′,6-diamidino-2-phenylindole, Invitrogen) was then applied at 0.03 ug/ul and incubated at RT for 5 min, then washed with PBS.
Images were captured and analyzed with the Cellomics VTI automated microscope platform, using the Neuronal Profiling algorithm. For statistical analysis, a Tukey-Kramer pair-wise comparison with unequal variance was used.

Series [4] concerns caspase-3 activity in SKOV-3 human ovarian cancer cells. Briefly: Caspase-3 activity assay in tumor cells. It counts as cell-based.

T2 sequence (Q60492 whole entry): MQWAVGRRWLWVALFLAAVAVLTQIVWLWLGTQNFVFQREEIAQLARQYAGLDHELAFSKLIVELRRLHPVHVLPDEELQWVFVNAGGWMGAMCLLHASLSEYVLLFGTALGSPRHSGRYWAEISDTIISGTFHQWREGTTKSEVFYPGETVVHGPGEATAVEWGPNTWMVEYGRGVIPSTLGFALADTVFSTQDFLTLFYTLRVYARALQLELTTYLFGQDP
Protocol for sigma-2 receptor: Brain sections in 20 μM thickness from rats, rhesus monkeys and postmortem human brains were cut using with a Microm cryotome and mounted on superfrost plus glass slides (Fisher Scientific, Pittsburgh, Pa.)., and serial sections through the brain regions of cerebral cortex and hippocampus were used in this study.
Slides were dried and made conductive by coating with a copper foil tape on the free side and then placed in the gas chamber [mixture of argon and triethylamine (Sigma-Aldrich, USA)] of a gaseous detector, the Beta Imager 2000Z Digital Beta Imaging System (Biospace, France). […] [^3H]Microscale (American Radiolabeled Chemicals, Inc., St. Louis, Mo.) was counted at the same time as a reference for total radioactivity quantitative analysis, i.e., to convert the cpm/mm2 to nCi/mg tissue. Quantitative analysis was performed with the program Beta-Image Plus (BioSpace, France) for the anatomical regions of interest (ROI), i.e., to obtain the quantitative radioactivity uptake (cpm/nlln2) in the regions of cortex and hippocampus. The binding density was normalized to fmol/mg tissue based on the specific activities of the corresponding radioligands and calibration curve from the standard [^3H]Microscale.

`COc1cc(CCC(C)NCc2ccc(C(F)(F)F)cc2)ccc1O` (stereo not shown) [Compound II]: the “Number of receptors with activity >50% (assay window) out of 100” value in the series on 100 known receptors stood at 5. Also, in the series on sigma-2 receptor, the “Displacement of 18.4 nM [3H]-RHM-1” value is given as “partially displace”. Besides, the inhibition (usually the change of the read-out against control, counted positive when it falls) at 10 µM in series [1] is 89%; in the series on CYP2D6, CYP3A4, CYP2C19, 46 to 73%. In addition, the “Memory performance when dosed alone” value in series [2] (no Abeta oligomer) was “no effect of compounds alone”. Further, the “Abeta oligomer-induced memory deficits (freezing behavior 24 hours post-training)” value in series [2] (single intrahippocampal injection one hour prior to oligomers (2 microMolar, b68; 2 pmol dose)) is given as “completely blocked oligomer-mediated memory deficits; also recorded: eliminated memory deficits”. Besides, the Ki (commonly a dissociation constant, usually derived from enzyme kinetics or from competition with a known ligand) at sigma-1 receptor was 108 ± 19.9 nM. For the same compound, in series [3] (5 μM of compound), the “Share of Abeta oligomer-induced synapse loss eliminated” value was 100%. This compound also displayed a Block synapse loss in series [3] (Table 10B) of 100%. For the same compound, the “Synapse number when dosed without Abeta oligomers” value in series [3] (compound in vehicle alone) is on record as “No effect”. In addition, the “Abeta oligomer-induced synapse loss” value in series [3] (in words) is “completely eliminated this synaptic regression”. For the same compound, the “Block of caspase-3 activation caused by sigma-2 receptor agonist SV-119” value in series [4] is listed as “do not block caspase-3 activation”. Also, the “Induction of caspase-3 activity” value in series [4] was “did not induce caspase-3 activity”.
